Reference: article PMC10132981, “Formate overflow drives toxic folate trapping in MTHFD1 inhibited cancer cells” (Nature Metabolism, 2023)
Like-named read-outs stand apart in the source and are kept apart here. Values belong to the compound of their own block, whether it stands above or below them.

Assays:
Assay in all cases: cells
SW620 MTHFD2 -/- = test system: SW620 MTHFD2 -/-; set-up: species or system HCT116, PA-TU-8988T; Resazurin cell viability dose-response in 384-well plates, fluorescence at 595 nm, logistic fit; settings: Homo sapiens, SW-620, 96 h, C=RPMI+GlutaMAX (5% dFBS, 1% P/S), D=Vehicle, 96 h viability, no metabolite rescue (vehicle), read-out: EC50 compound
SW620 MTHFD2-/- = test system: SW620 MTHFD2-/-; set-up: species or system HCT116, PA-TU-8988T; Resazurin cell viability dose-response in 384-well plates, fluorescence at 595 nm, logistic fit; settings: Homo sapiens, SW-620, 96 h, C=RPMI+GlutaMAX (5% dFBS, 1% P/S), D=Vehicle, 96 h viability, no metabolite rescue (vehicle), read-out: EC50 compound
SW620 WT = test system: SW620 WT; set-up: species or system SW620 MTHFD2-/-, HCT116, PA-TU-8988T; Resazurin cell viability dose-response in 384-well plates, fluorescence at 595 nm, logistic fit; settings: Homo sapiens, SW-620, 96 h, D=Vehicle, 96 h viability, no metabolite rescue (vehicle), read-out: EC50 compound
SW620 = test system: SW620; set-up: species or system SW620 MTHFD2-/-, HCT116, PA-TU-8988T; Resazurin cell viability dose-response in 384-well plates, fluorescence at 595 nm, logistic fit; settings: Homo sapiens, SW-620, 96 h, D=Vehicle, 96 h viability, no metabolite rescue (vehicle), read-out: EC50 compound
HCT116 = test system: HCT116; set-up: species or system SW620, SW620 MTHFD2-/-, PA-TU-8988T; Resazurin cell viability dose-response in 384-well plates, fluorescence at 595 nm, logistic fit; settings: Homo sapiens, HCT-116, 96 h, Figure 1=Extended Data Fig. 2a; C=RPMI+GlutaMAX (10% FBS, 1% P/S); D=Vehicle; 96 h viability, no metabolite rescue (vehicle); read-out: EC50 compound
PA-TU-8988T = test system: PA-TU-8988T; set-up: species or system SW620, SW620 MTHFD2-/-, HCT116; Resazurin cell viability dose-response in 384-well plates, fluorescence at 595 nm, logistic fit; settings: Homo sapiens, PaTu 8988t, 96 h, Figure 1=Extended Data Fig. 3e; C=DMEM+GlutaMAX (5% dFBS, 1% P/S); D=Vehicle; 96 h viability, no metabolite rescue (vehicle); read-out: EC50 compound
[1] = Figure 1=Extended Data Fig. 3b, C=RPMI+GlutaMAX (5% dFBS, 1% P/S)
[2] = C=RPMI+GlutaMAX (5% FBS, 1% P/S)
[3] = Figure 1=Extended Data Fig. 3c, C=RPMI+GlutaMAX (5% dFBS, 1% P/S)
[4] = Figure 1=Extended Data Fig. 2b, C=RPMI+GlutaMAX (10% FBS, 1% P/S)
[5] = Figure 1=Extended Data Fig. 2c, C=RPMI+GlutaMAX (10% FBS, 1% P/S)

SMILES: Cc1c(N2CCN(C)[C@@H](C)C2)ccc2c3c(c(=O)oc12)CN(C(=O)c1ccc(NS(C)(=O)=O)c(OC(F)(F)F)c1)CC3 [DS18561882]
EC50 (SW620 MTHFD2 -/-; Figure 1=3o): 0.551 µM
EC50 (SW620 MTHFD2 -/-; Figure 1=Extended Data Fig. 3d): 0.0574 µM
EC50 (SW620 MTHFD2-/-; Figure 1=6f): 0.162 µM
EC50 (SW620 WT; Figure 1=3k, C=RPMI+GlutaMAX (5% dFBS, 1% P/S)): 0.954 µM
EC50 (SW620 WT; [1]): 0.772 µM
EC50 (SW620; [2]): > 10 µM
EC50 (SW620; Figure 1=1d, C=RPMI+GlutaMAX (10% FBS, 1% P/S)): 0.491 µM
EC50 (SW620; Figure 1=3d, C=RPMI+GlutaMAX (5% dFBS, 1% P/S)): 0.954 µM
EC50 (SW620; Figure 1=Extended Data Fig.5d, C=RPMI+GlutaMAX (5% dFBS, 1% P/S)): 0.32 µM

SMILES: Cc1[nH]nc2c1C(c1cc(CO)cc(-c3ccccc3)c1)(C(C)C)C(C#N)=C(N)O2 (stereo not drawn) [SHIN1]
EC50 (SW620 MTHFD2-/-; Figure 1=6g): 0.00235 µM
EC50 (SW620; Figure 1=1e, C=RPMI+GlutaMAX (10% FBS, 1% P/S)): 1.6 µM

SMILES: O=c1[nH]cc(F)c(=O)[nH]1 [5-FU]
EC50 (HCT116): 2.14 µM
EC50 (SW620; Figure 1=2f, C=RPMI+GlutaMAX (10% FBS, 1% P/S)): 5.35 µM
EC50 (SW620; [4]): 5.17 µM
EC50 (SW620; [5]): 4.63 µM

Second part, led by results:

EC50 (HCT116): 0.0524 µM
EC50 (SW620 MTHFD2 -/-; Figure 1=3l): 0.000626 µM
EC50 (SW620 MTHFD2 -/-; Figure 1=Extended Data Fig. 3d): 0.00171 µM
EC50 (SW620 MTHFD2-/-; Figure 1=6c): 0.00124 µM
EC50 (SW620 WT; Figure 1=6i, C=RPMI+GlutaMAX (5% dFBS, 1% P/S)): 1.42 µM
EC50 (SW620 WT; Figure 1=3h, C=RPMI+GlutaMAX (5% dFBS, 1% P/S)): 0.993 µM
EC50 (SW620 WT; [1]): 0.562 µM
EC50 (SW620 WT; [3]): 0.694 µM
EC50 (SW620 WT; Figure 1=Extended Data Fig. 3f, C=RPMI+GlutaMAX (5% dFBS, 1% P/S, 10 uM Hypoxanthine)): 0.0169 µM
EC50 (SW620; C=HPLM (5% dFBS, 1% P/S)): 0.0113 µM
EC50 (SW620; [2]): 0.0249 µM
EC50 (SW620; Figure 1=1b, C=RPMI+GlutaMAX (10% FBS, 1% P/S)): 0.0206 µM
EC50 (SW620; Figure 1=3a, C=RPMI+GlutaMAX (5% dFBS, 1% P/S)): 0.603 µM
EC50 (SW620; [4]): 0.0278 µM
EC50 (SW620; [5]): 0.0219 µM
EC50 (SW620; Figure 1=Extended Data Fig. 5j, C=RPMI+GlutaMAX (5% dFBS, 1% P/S)): 0.258 µM
EC50 (SW620; Figure 1=Extended Data Fig.5a, C=RPMI+GlutaMAX (5% dFBS, 1% P/S)): 0.572 µM
EC50 (SW620; Figure 1=Extended Data Fig.5f, C=RPMI+GlutaMAX (5% dFBS, 1% P/S)): 0.439 µM
EC50 (SW620; Figure 1=Extended Data Fig.5h, C=RPMI+GlutaMAX (5% dFBS, 1% P/S)): 0.239 µM
SMILES: Nc1nc(N)c(CC(=O)Nc2cnc(C(=O)N[C@@H](CCC(=O)O)C(=O)O)c(F)c2)c(=O)[nH]1 [TH9619]
EC50 (PA-TU-8988T): 0.0222 µM

EC50 (HCT116): 0.00948 µM
EC50 (SW620 MTHFD2 -/-; Figure 1=3n): 0.00107 µM
EC50 (SW620 MTHFD2 -/-; Figure 1=Extended Data Fig. 3d): 0.00509 µM
EC50 (SW620 MTHFD2-/-; Figure 1=6e): 0.00121 µM
EC50 (SW620 WT; Figure 1=3j, C=RPMI+GlutaMAX (5% dFBS, 1% P/S)): 0.00636 µM
EC50 (SW620 WT; Figure 1=6k, C=RPMI+GlutaMAX (5% dFBS, 1% P/S)): 0.00599 µM
EC50 (SW620 WT; [1]): 0.00733 µM
EC50 (SW620 WT; [3]): 0.00652 µM
EC50 (SW620; C=HPLM (5% dFBS, 1% P/S)): 0.027 µM
EC50 (SW620; [2]): 0.0123 µM
EC50 (SW620; Figure 1=2e, C=RPMI+GlutaMAX (10% FBS, 1% P/S)): 0.017 µM
EC50 (SW620; Figure 1=3c, C=RPMI+GlutaMAX (5% dFBS, 1% P/S)): 0.00712 µM
EC50 (SW620; [4]): 0.00921 µM
EC50 (SW620; [5]): 0.00996 µM
EC50 (SW620; Figure 1=Extended Data Fig.5c, C=RPMI+GlutaMAX (5% dFBS, 1% P/S)): 0.0106 µM
SMILES: CN(Cc1cnc2nc(N)nc(N)c2n1)c1ccc(C(=O)N[C@@H](CCC(=O)O)C(=O)O)cc1 [MTX]
EC50 (PA-TU-8988T): 0.0308 µM
